Experimental findings from PubChem BioAssay (NCI) are described below.

Several values for one entry are separate records, joined by “and”; a condition that tells them apart may be missing. Equal values may be shown once.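 Compound exposure: 48 hours, 5 concentrations, 96-well plates. At the GI50, growth is halved. At the TGI there is no net growth.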

Among the test systems are BT-549 breast; HL-60(TB) leukemia; IGROV1 ovarian; OVCAR-3 ovarian; OVCAR-8 ovarian; SNB-19 CNS; SR leukemia; U251 CNS.
What all share (assay): inhibition of tumour cell growth, NCI panel, 48 h

With `Cc1ccccc1NC(=O)c1cc2ccccc2cc1O`, the GI50 in the assay on BT-549 breast was 3.46 µM; in the assay with HL-60(TB) leukemia it was 2.5 µM; in the assay with IGROV1 ovarian, 2.65 µM; in the assay on OVCAR-3 ovarian it was 2.56 µM; with OVCAR-8 ovarian, 3.46 µM; in the assay with SNB-19 CNS, 4.6 µM. For the same compound, the GI50 in the assay with SR leukemia is 4.84 µM; in the assay on U251 CNS it was 3.56 µM. Moreover, the TGI in the assay on BT-549 breast was 8.43 µM; with HL-60(TB) leukemia, 7.34 µM; in the assay on IGROV1 ovarian, 30.3 µM; in the assay with OVCAR-3 ovarian it was 7.77 µM; in the assay with OVCAR-8 ovarian, 59.3 µM; in the assay on SNB-19 CNS, > 100 µM. In addition, the TGI with SR leukemia and in the assay with U251 CNS was > 100 µM in each case.

Turning to `O=C1C=C(OCCCl)C(=O)c2c(O)ccc(O)c21`, the TGI in the assay on BT-549 breast was 0.477 µM; in the assay on HL-60(TB) leukemia it was 2.58 µM and 1.17 µM; in the assay on IGROV1 ovarian, 3.43 µM and 3.66 µM; in the assay on OVCAR-3 ovarian, 2.33 µM and 1.08 µM; with OVCAR-8 ovarian, 5.08 µM and 3.03 µM; in the assay with SNB-19 CNS, 2.56 µM. In addition, the TGI in the assay on SR leukemia was 3.22 µM; in the assay with U251 CNS it was 3.33 µM and 7.48 µM. For the same compound, the GI50 is 0.23 µM in the assay on HL-60(TB) leukemia, 0.286 µM with OVCAR-3 ovarian, 1.59 µM in the assay on OVCAR-8 ovarian and 2.76 µM in the assay on U251 CNS.

Consider `O=c1[nH]nc(-c2ccccc2)c2c(-c3ccccc3)onc12`, for which the GI50 is 0.506 µM in the assay on BT-549 breast; 0.291 µM with HL-60(TB) leukemia; 0.615 µM in the assay on IGROV1 ovarian; 0.358 µM in the assay with OVCAR-3 ovarian; 0.812 µM in the assay with OVCAR-8 ovarian; 11.2 µM with SNB-19 CNS. The figures for the GI50 with SR leukemia and in the assay with U251 CNS were 0.288 µM and 0.517 µM, respectively. The TGI is > 47.8 µM with BT-549 breast; > 100 µM in the assay with IGROV1 ovarian; 1.44 µM with OVCAR-3 ovarian; > 100 µM with OVCAR-8 ovarian; > 100 µM with SNB-19 CNS; > 100 µM with U251 CNS.

Take `Cc1ccc([N+](=O)[O-])c2c(NCCC[N+](C)(C)[O-])ccnc12`: the TGI in the assay on HL-60(TB) leukemia is > 100 µM; in the assay on IGROV1 ovarian, 67.3 µM; in the assay on OVCAR-3 ovarian, > 100 µM; with OVCAR-8 ovarian it was > 100 µM; in the assay on SNB-19 CNS, > 100 µM; in the assay on SR leukemia it was > 100 µM. Moreover, the TGI with U251 CNS was > 100 µM.

For `CC(=O)n1c(-c2ccc(Cl)c(Cl)c2)cn(-c2ccc(Cl)cc2)c1=O`, the GI50 was 17 µM with BT-549 breast; 34.8 µM in the assay with HL-60(TB) leukemia; 51.2 µM in the assay with OVCAR-3 ovarian; 23.1 µM in the assay with OVCAR-8 ovarian; 13.4 µM with SNB-19 CNS; 16.1 µM in the assay with SR leukemia. The GI50 with U251 CNS was 16.3 µM. Moreover, the TGI with BT-549 breast was 36.6 µM; in the assay with HL-60(TB) leukemia, > 100 µM; in the assay on OVCAR-3 ovarian it was > 100 µM; with OVCAR-8 ovarian it was 76.5 µM; in the assay on SNB-19 CNS it was 40.7 µM; in the assay on SR leukemia, 33 µM. The TGI in the assay with U251 CNS is 37.5 µM.

In the case of `CCCCN(CCCC)CCC(O)c1cc2ccc(C(F)(F)F)cc2c2cc(C(F)(F)F)ccc12` (centres undefined), the GI50 with HL-60(TB) leukemia is 1.44 µM; in the assay with IGROV1 ovarian, 3.47 µM; in the assay on OVCAR-3 ovarian, 2.89 µM; in the assay on OVCAR-8 ovarian, 1.92 µM; in the assay on SNB-19 CNS, 3.92 µM; with SR leukemia, 1.61 µM. Moreover, in the assay with U251 CNS, the GI50 was 1.79 µM. Also, the TGI in the assay with HL-60(TB) leukemia was found to be 3.42 µM; in the assay on IGROV1 ovarian, 14.5 µM; with OVCAR-3 ovarian it was 7.55 µM; in the assay on OVCAR-8 ovarian, 4.25 µM; in the assay on SNB-19 CNS, 15.3 µM; with SR leukemia, 6.41 µM. In addition, in the assay with U251 CNS, the TGI was 3.75 µM.

With `O=C1NC(c2ccccc2)N=C2Oc3ccccc3C=C12` (centres undefined), the TGI with BT-549 breast is > 100 µM; with IGROV1 ovarian it was > 74.4 µM; in the assay on OVCAR-3 ovarian, > 100 µM; in the assay on OVCAR-8 ovarian, > 100 µM; in the assay on SNB-19 CNS it was > 100 µM; in the assay on SR leukemia, > 100 µM. In addition, in the assay on U251 CNS, the TGI is > 100 µM.

Regarding `Oc1ccc(O)c2c1C1(Cl)C(Cl)=C(Cl)C2(Cl)C1(Cl)Cl`, the GI50 in the assay on HL-60(TB) leukemia was 3.19 µM; with IGROV1 ovarian, 5.73 µM; in the assay with OVCAR-3 ovarian, 2.03 µM; in the assay with OVCAR-8 ovarian, 10.3 µM; in the assay with SNB-19 CNS, 9.45 µM; in the assay with SR leukemia, 2.65 µM. The GI50 in the assay on U251 CNS is 5.76 µM. The TGI is 12.1 µM in the assay with HL-60(TB) leukemia; 20.2 µM with IGROV1 ovarian; 5.17 µM in the assay with OVCAR-3 ovarian; 36.6 µM in the assay with OVCAR-8 ovarian; 27.3 µM in the assay with SNB-19 CNS; 24.7 µM in the assay on SR leukemia. Moreover, in the assay with U251 CNS, the TGI turned out to be 20 µM.

For the compound `Nc1ccccc1C#C/C=C\C#Cc1ccccc1F`, the GI50 in the assay with BT-549 breast is 4.06 µM; in the assay on IGROV1 ovarian, 5.34 µM; in the assay with OVCAR-3 ovarian, 2.84 µM; with OVCAR-8 ovarian, 18.5 µM; in the assay with U251 CNS it was 6.44 µM. Besides, the TGI stood at 18.1 µM with BT-549 breast; 28.8 µM with IGROV1 ovarian; 14.7 µM with OVCAR-3 ovarian; 67.7 µM in the assay with OVCAR-8 ovarian; 20.7 µM with U251 CNS.

Turning to `O=C(NN1C(=O)CSC12CCC(c1ccccc1)CC2)c1[nH]c2ccc(F)cc2c1-c1ccccc1` (centres undefined), the GI50 with BT-549 breast is 19.9 µM; in the assay on IGROV1 ovarian, 13 µM; with OVCAR-3 ovarian, 17.1 µM; in the assay with OVCAR-8 ovarian, 17.8 µM; with SNB-19 CNS, 29.8 µM; with U251 CNS, 15.6 µM. The TGI in the assay with BT-549 breast was 34.8 µM; in the assay on IGROV1 ovarian, 25.7 µM; in the assay on OVCAR-3 ovarian, 31.5 µM; in the assay on OVCAR-8 ovarian it was 36.5 µM; in the assay on SNB-19 CNS, > 100 µM; in the assay with U251 CNS, 29.9 µM.

Consider `O=C1OC(OC/C(Br)=C(/Br)COC2OC(=O)C(Cl)=C2Cl)C(Cl)=C1Cl` (centres undefined), for which the TGI is 4.33 µM with HL-60(TB) leukemia; 28.2 µM in the assay with IGROV1 ovarian; 14.6 µM in the assay with OVCAR-3 ovarian; > 58 µM in the assay on OVCAR-8 ovarian; 37 µM in the assay with SNB-19 CNS; 5.46 µM in the assay with SR leukemia. The compound also had a TGI in the assay on U251 CNS of 24.2 µM. In addition, the GI50 in the assay on SR leukemia is 1.6 µM.

Take `COC1C(O)C(C)OC(O[C@@H]2C[C@H]3CC[C@@H]4[C@H](CC[C@]5(C)[C@@H](C6=CC(=O)OC6)CC[C@]45O)[C@@]3(C)[C@H](O)C2)C1O` (some centres undefined): the TGI in the assay on BT-549 breast was 0.159 µM; with HL-60(TB) leukemia, 0.145 µM; with OVCAR-3 ovarian it was 0.0838 µM; with OVCAR-8 ovarian it was 0.268 µM; with SNB-19 CNS it was 1.26 µM; in the assay on U251 CNS, 12.5 µM.
